{"source": "patent US20080280953A1", "about": "“Agents Used for the Treatment of Seeds” (Bayer Cropscience AG, priority 2004, published 2008)", "assay_type_in_all_cases": "in vivo", "key": {"[1]": {"test_system": "white fly (Bemisia tabaci), all stages", "assay": "Bemisia tabaci test, open land (spray treatment)", "conditions": "300 g/ha, spray on paprika plants", "protocol": "(§1) To prepare a suitable active compound preparation 1 part by weight of the active compound is mixed with the given amount of water to the desired concentration.\nPaprika plants (Capsicum annuum) that are infested with all stages of the white fly (Bemisia tabaci) are sprayed with an active compound preparation at the desired concentration.\nAfter the desired time the death rate in % is determined. Here 100% means that all white fly were killed; 0% means that no white fly were killed."}, "[2]": {"test_system": "onion thrips (Thrips tabaci)", "assay": "Thrips tabaci test, open land (spray treatment)", "conditions": "300 g/ha, spray on onions", "protocol": "as §1\nOnions (Allium cepa) that are infested with all stages of the onion thrips (Thrips tabaci) are sprayed with an active compound preparation at the desired concentration.\nAfter the desired time the death rate in % is determined. Here 100% means that all thrips were killed; 0% means that no thrips were killed."}, "[3]": {"test_system": "white fly (Bemisia tabaci) eggs and larvae", "assay": "Bemisia tabaci test, treated soil (Example Z)", "conditions": "4 ppm in soil, cotton plant", "protocol": "(§2) To prepare a suitable active compound preparation 1 part by weight of the active compound is mixed with the given amount of solvent and emulsifier and the concentrate is diluted to the desired concentration with water.\nThe active compound preparation is mixed with earth. The concentration given relates to the amount of active compound per volume unit soil (mg/l=ppm). The treated earth is filled into pots and planted with a cotton plant (Gossypium hirsutum). After a week infection is carried out with white fly (Bemisia tabaci) for egg deposition.\nAfter the desired time the death rate of eggs and larvae, respectively, in % is determined. Here 100% means that all animals were killed; 0% means that no animals that were killed."}, "[4]": {"test_system": "green peach aphid (Myzus persicae)", "assay": "Myzus persicae test (soil application)", "conditions": "4 ppm in soil, pepper plant", "protocol": "as §2\nThe active compound mixture was mixed with soil. The concentration given refers to amount of active compound per volume unit of earth (mg/l=ppm). Pots are filled with the treated earth and planted with a pepper plant (Capsicum annuum). After a week they are infected with the green peach aphid (Myzus persicae).\n(§3) After the desired time the death rate in % is determined. Here 100% means that all aphids were killed; 0% means that no aphids were killed."}, "[5]": {"test_system": "mealy cabbage aphid (Brevicoryne brassicae)", "assay": "Brevicoryne brassicae test, open land (spray treatment), Example J1", "conditions": "300 g/ha, spray on cabbage plants", "protocol": "as §1\n(§4) Cabbage plants (Brassica oleracea) that are infested with all stages of the mealy cabbage aphid (Brevicoryne brassicae) are sprayed with an active compound preparation at the desired concentration.\nas §3"}, "[6]": {"test_system": "bird cherry-oat aphid (Rhopalosiphon padi)", "assay": "Rhopalosiphon padi test (seed application)", "conditions": "1.4 g ai/kg, barley seed treatment", "protocol": "as §2\nBarley seed (Hordeum vulgare) is treated with the active compound preparation and sown into the soil. After about 1 week the barley plants are infected with the bird cherry-oat aphid (Rhopalosiphon padi).\nas §3"}, "[7]": {"test_system": "brown plant hopper (Nilaparvata lugens)", "assay": "Nilaparvata lugens test, open land (spray treatment)", "conditions": "300 g/ha, spray on rice plants", "protocol": "as §1\nRice plants (Oryza sativa) that are infested with all stages of the brown plant hopper (Nilaparvata lugens) are sprayed with an active compound preparation at the desired concentration.\nAfter the desired time the death rate in % is determined. Here 100% means that all plant hoppers were killed; 0% means that no plant hoppers were killed."}, "Lucilia cuprina larvae": {"test_system": "Lucilia cuprina larvae", "assay": "Fly larvae test", "conditions": "100 ppm", "protocol": "10 mg active compound were dissolved in 0.5 ml dimethylsulphoxide. To prepare a suitable formulation the active compound solution is diluted with water to the respective desired concentration.\nAbout 20 Lucilia cuprina larvae are placed in a test tube that contains ca. 1 cm^3 horse flesh and 0.5 ml of the active compound preparation under test.\n(§5) After the desired time the death rate in % is determined. Here 100% means that all larvae were killed; 0% means that no larvae were killed."}, "[8]": {"test_system": "codling moth larvae (Cydia pomonella)", "assay": "Cydia pomonella test, treated feed", "conditions": "20 ppm in feed", "protocol": "as §2\nThe active compound preparation was mixed with feed. The concentration given relates to the amount of active compound per unit volume feed (mg/l=ppm). The treated feed is placed in Petri dishes and infected with codling moth larvae (Cydia pomonella).\nas §5"}, "[9]": {"test_system": "mealy cabbage aphid (Brevicoryne brassicae)", "assay": "Brevicoryne brassicae test, open land (drench application)", "conditions": "0.04 g/plant, drench on cabbage plants", "protocol": "as §1\nCabbage plants (Brassica oleracea) that are infested with all stages of the mealy cabbage aphid (Brevicoryne brassicae) are drenched with an active compound preparation at the desired concentration.\nas §3"}, "[10]": {"test_system": "cotton aphid (Aphis gossypii)", "assay": "Aphis gossypii test (soil application)", "conditions": "4 ppm in soil, cotton plant", "protocol": "as §2\nThe active compound mixture was mixed with soil. The concentration given refers to amount of active compound per volume unit of soil (mg/l=ppm). Pots are filled with the treated earth and planted with a cotton plant (Gossypium hirsutum). After one week the plants are infected with the cotton aphid (Aphis gossypii).\nas §3"}, "[11]": {"test_system": "adults of the Colorado beetle (Leptinotarsa decemlineata)", "assay": "Leptinotarsa decemlineata adults test", "conditions": "60 g/ha, spray on potato leaves", "protocol": "(§6) To prepare a suitable active compound preparation 1 part by weight of the active compound is mixed with the given amount of solvent and emulsifier and the concentrate is diluted to the desired concentration with water containing emulsifier.\nLeaves of potato plant (Solanum tuberosum) that are infested with adults of the Colorado beetle, (Leptinotarsa decemlineata) are treated by spraying with the active compound at the desired concentration.\nAfter the desired time the activity in % is determined. Here 100% means that all beetles were killed; 0% means that no beetles were killed."}, "[12]": {"test_system": "horse chestnut scale (Pulvinaria regalis)", "assay": "Pulvinaria regalis test, spraying of chestnut trees (Example B1)", "conditions": "100 ppm, spray on chestnut trees", "protocol": "as §6\nChestnut trees (Castaney vesca) that are infested with horse chestnut scale (Pulvinaria regalis) are treated by spraying with the active compound preparation at the desired concentration.\nAfter the desired time the death rate in % is determined. Here 100% means that all animals were killed; 0% means that no animals were killed."}, "[13]": {"test_system": "mealy cabbage aphid (Brevicoryne brassicae)", "assay": "Brevicoryne brassicae test, open land (spray treatment), Example M1", "conditions": "300 g/ha, spray on cabbage plants", "protocol": "as §1, §4\nAfter the desired time the death rate in % is determined. Here 100% means that all nymphs were killed; 0% means that no nymphs were killed."}, "[14]": {"test_system": "termites (Odontotermes sp.)", "assay": "Odontotermes test, open land (spray treatment)", "conditions": "240 g/ha, spray on obeche wood", "protocol": "as §1\nAreas of wood of the obeche tree (Triplochiton scleroxylon) are treated by spraying with the active compound preparation at the desired concentration and infected with termites (Odontotermes sp.).\nAfter the desired time the activity in % is determined. Here 100% means that the wood was not infested by termites; 0% means that the wood was infested by termites."}, "[15]": {"test_system": "green leaf hopper (Nephotettix sp.)", "assay": "Nephotettix sp. test, open land (spray treatment)", "conditions": "300 g/ha, spray on rice plants", "protocol": "as §1\nRice plants (Oryza sativa) that are infested with all stages of the green leaf hopper (Nephotettix sp.) are sprayed with an active compound preparation at the desired concentration.\nAfter the desired time the death rate in % is determined. Here 100% means that all leaf hoppers were killed; 0% means that no leaf hoppers were killed."}}}
{"molecule": "CN(Cc1ccc(Cl)nc1)C1=CC(=O)OC1", "note": "[Compound 84]", "values": [{"measurement": "death rate after 65 days", "setting": "[1]", "value": 93, "unit": "%"}, {"measurement": "death rate after 14 days", "setting": "[2]", "value": 89, "unit": "%"}, {"measurement": "death rate after 14 days", "setting": "[3]", "value": 100, "unit": "%"}, {"measurement": "Activity in % after 7 d", "setting": "[4]", "value": 100, "unit": "%"}, {"measurement": "death rate after 22 days", "setting": "[5]", "value": 99, "unit": "%"}, {"measurement": "Activity in % after 7 d", "setting": "[6]", "value": 100, "unit": "%"}, {"measurement": "death rate after 14 days", "setting": "[7]", "value": 91, "unit": "%"}, {"measurement": "death rate after 2 days", "setting": "Lucilia cuprina larvae", "value": 100, "unit": "%"}, {"measurement": "death rate after 7 days", "setting": "[8]", "value": 100, "unit": "%"}, {"measurement": "death rate after 35 days", "setting": "[9]", "value": 100, "unit": "%"}, {"measurement": "Activity in % after 7 d", "setting": "[10]", "value": 100, "unit": "%"}, {"measurement": "activity after 7 days", "setting": "[11]", "value": 100, "unit": "%"}, {"measurement": "death rate after 30 days", "setting": "[12]", "value": 100, "unit": "%"}, {"measurement": "death rate after 28 days", "setting": "[13]", "value": 96, "unit": "%"}, {"measurement": "activity after 45 days", "setting": "[14]; after 45 days", "value": 99, "unit": "%"}, {"measurement": "death rate after 15 days", "setting": "[15]", "value": 98, "unit": "%"}]}
{"molecule": "O=C1C=C(N(Cc2ccc(Cl)nc2)C2CC2)CO1", "note": "[Compound 88]", "values": [{"measurement": "death rate after 65 days", "setting": "[1]", "value": 93, "unit": "%"}, {"measurement": "death rate after 14 days", "setting": "[2]", "value": 98, "unit": "%"}, {"measurement": "death rate after 14 days", "setting": "[3]", "value": 100, "unit": "%"}, {"measurement": "Activity in % after 7 d", "setting": "[4]", "value": 100, "unit": "%"}, {"measurement": "death rate after 22 days", "setting": "[5]", "value": 99, "unit": "%"}, {"measurement": "Activity in % after 7 d", "setting": "[6]", "value": 100, "unit": "%"}, {"measurement": "death rate after 14 days", "setting": "[7]", "value": 99, "unit": "%"}, {"measurement": "death rate after 2 days", "setting": "Lucilia cuprina larvae", "value": 100, "unit": "%"}, {"measurement": "death rate after 7 days", "setting": "[8]", "value": 90, "unit": "%"}, {"measurement": "death rate after 35 days", "setting": "[9]", "value": 97, "unit": "%"}, {"measurement": "Activity in % after 7 d", "setting": "[10]", "value": 100, "unit": "%"}, {"measurement": "activity after 7 days", "setting": "[11]", "value": 100, "unit": "%"}, {"measurement": "death rate after 30 days", "setting": "[12]", "value": 95, "unit": "%"}, {"measurement": "death rate after 28 days", "setting": "[13]", "value": 99, "unit": "%"}, {"measurement": "activity after 65 days", "setting": "[14]; after 65 days", "value": 95, "unit": "%"}, {"measurement": "death rate after 15 days", "setting": "[15]", "value": 99, "unit": "%"}]}
